In patent publication US10919888B2, “Benzyl amine-containing heterocyclic compounds and compositions useful against mycobacterial infection” (priority 2015, dated 2021):

Key:
mice = details: mouse
Mycobacterium avium 101 = assay: In vivo efficacy in mice infected with Mycobacterium avium 101 (FIG. 2); details: dosed orally with 25 mg/kg and 100 mg/kg
Description: Panel A is the log 10 colony forming units (CFU) drop in bacteria in the lungs when treated with ND-10885 (at 25 and 100 mg/kg), rifampicin (RMP, 20 mg/kg) and a combination of ND-10885 (100 mg/kg) and rifampicin (20 mg/kg). Panel B is the log 10 colony forming units (CFU) drop in bacteria in the spleen when treated with ND-10885 (at 25 and 100 mg/kg), rifampicin (RMP, 20 mg/kg) and a combination of ND-10885 (100 mg/kg) and rifampicin (20 mg/kg). Panel C is the log 10 colony forming units (CFU) drop in bacteria in the liver when treated with ND-10885 (at 25 and 100 mg/kg), rifampicin (RMP, 20 mg/kg) and a combination of ND-10885 (100 mg/kg) and rifampicin (20 mg/kg).

in vivo = details: mouse, MTD (maximum tolerated dose)
M. avium = assay: Murine MAC infection model, two week infection in Balb/c mice; format: in vivo, Mycobacterium avium; details: two week infection experiment, control
Description: AND CHEMOTHERAPY, 1995, 39(8), 1647-1654 for review of MAC infection model and Antimicrob Agents Chemother. 1992, 36(11):2413-7 for a typical experiment (done with clarithromycin).

## Cc1ccn2c(C(=O)NCc3ccc(S(F)(F)(F)(F)F)cc3)c(C)nc2c1
other
  melting point: 186 to 187 °C

## CCc1nc2ccc(Cl)cn2c1C(=O)NCc1ccc(S(F)(F)(F)(F)F)cc1
other
  melting point: 191 to 192 °C

## Cc1ccc2nc(C)c(C(=O)NCc3ccc(S(F)(F)(F)(F)F)cc3)n2c1
other
  melting point: 176 to 177 °C

## Cc1ccn2c(C(=O)NCc3ccc(N4CCOCC4)cc3)c(C)nc2c1 [ND-10823]
mice
  dose limiting toxicity / in vivo toxicity: 100 mg/kg

## Cc1ccn2c(C(=O)NCc3ccc4c(c3)CCO4)c(C)nc2c1 [ND-10885]
Mycobacterium avium 101
  in vivo efficacy (log 10 CFU drop in lungs, spleen, liver): validate the in vivo efficacy

## Cc1ccn2c(C(=O)NCc3ccc(N4CCCN(c5ccc(C(F)(F)F)cc5)CC4)c(F)c3)c(C)nc2c1 [ND-11598]
In vivo
  MTD: ≥ 250 mg/kg

## CCc1nc2ccc(Cl)cn2c1C(=O)NCc1ccc(N2CCSCC2)c(F)c1 [ND-11622]
In vivo
  MTD: ≥ 250 mg/kg

## CO[C@H]1/C=C/O[C@@]2(C)Oc3c(C)c(O)c4c(O)c(c(/C=N/N5CCN(C)CC5)c(O)c4c3C2=O)NC(=O)/C(C)=C\C=C\[C@H](C)[C@H](O)[C@@H](C)[C@@H](O)[C@@H](C)[C@H](OC(C)=O)[C@@H]1C [rifampicin]
M. avium
  log 10 CFU drop in the amount of M. avium in the lungs: 1.8 log 10 CFU
